# Legend:
# Assay in all cases: MIC of meropenem in combination with compound, CDC carbapenem resistant strain
# Type in all cases: cell-based
# A. baumannii (Ab) AR# 83 = system: A. baumannii (Ab) AR# 83
# Method: (§1) EXAMPLE 2: Six compounds were assessed for their activity in combination with meropenem against carbapenem resistant strains of A. baumannii (Ab), K. pneumoniae (Kp), and E. coli acquired from the Center for Disease Control (CDC). AR #—assigned AR-BANK number from the CDC.
# A. baumannii (Ab) AR# 35 = system: A. baumannii (Ab) AR# 35
# Method: as §1
# [1] = system: K. pneumoniae (Kp) AR# 40
# Method: as §1
# A. baumannii (Ab) AR# 33 = system: A. baumannii (Ab) AR# 33
# Method: as §1
# A. baumannii (Ab) AR# 37 = system: A. baumannii (Ab) AR# 37
# Method: as §1
# A. baumannii (Ab) AR# 88 = system: A. baumannii (Ab) AR# 88
# Method: as §1
# E. coli AR# 55 = system: E. coli AR# 55
# Method: as §1
# [2] = system: K. pneumoniae (Kp) AR# 68
# Method: as §1
# A. baumannii (Ab) AR# 63 = system: A. baumannii (Ab) AR# 63
# Method: as §1
# A. baumannii (Ab) AR# 56 = system: A. baumannii (Ab) AR# 56
# Method: as §1
# A. baumannii (Ab) AR# 45 = system: A. baumannii (Ab) AR# 45
# Method: as §1
# [3] = system: K. pneumoniae (Kp) AR# 41
# Method: as §1
# A. baumannii (Ab) AR# 52 = system: A. baumannii (Ab) AR# 52
# Method: as §1
# A. baumannii (Ab) AR# 70 = system: A. baumannii (Ab) AR# 70
# Method: as §1
# [4] = system: K. pneumoniae (Kp) AR# 98
# Method: as §1
# E. coli AR# 48 = system: E. coli AR# 48
# Method: as §1
# A. baumannii (Ab) AR# 36 = system: A. baumannii (Ab) AR# 36
# Method: as §1
# [5] = 15 μM of 2-amino imidazole compound
# [6] = 64 μM of 2-amino imidazole compound
# [7] = 30 μM of 2-amino imidazole compound
# [8] = 7 μM of 2-amino imidazole compound
# [9] = 4 μM of 2-amino imidazole compound
# [10] = 2 μM of 2-amino imidazole compound
# [11] = 60 μM of 2-amino imidazole compound
smiles,measurement,setting,value
"CCCc1ccc(NC(=O)Nc2cccc(-c3cnc(N)[nH]3)c2)cc1 [Compound 2, 1-(3-(2-amino-1H-imidazol-5-yl)phenyl)-3-(4-propylphenyl)urea]",Minimum Inhibitory Concentration of Meropenem,A. baumannii (Ab) AR# 83; [5],96 (15) μg/mL
same,Minimum Inhibitory Concentration of Meropenem,A. baumannii (Ab) AR# 35; [5],16 (15) μg/mL
same,Minimum Inhibitory Concentration of Meropenem,[1]; [6],1024 (64) μg/mL
same,Minimum Inhibitory Concentration of Meropenem,A. baumannii (Ab) AR# 33; [5],32 (15) μg/mL
same,Minimum Inhibitory Concentration of Meropenem,A. baumannii (Ab) AR# 37; [5],64 (15) μg/mL
same,Minimum Inhibitory Concentration of Meropenem,A. baumannii (Ab) AR# 88; [5],128 (15) μg/mL
same,Minimum Inhibitory Concentration of Meropenem,E. coli AR# 55; [6],64 (64) μg/mL
same,Minimum Inhibitory Concentration of Meropenem,[2]; 32 μM of 2-amino imidazole compound,256 (32) μg/mL
same,Minimum Inhibitory Concentration of Meropenem,A. baumannii (Ab) AR# 63; [7],8 (30) μg/mL
same,Minimum Inhibitory Concentration of Meropenem,A. baumannii (Ab) AR# 56; [5],8 (15) μg/mL
same,Minimum Inhibitory Concentration of Meropenem,A. baumannii (Ab) AR# 45; [5],1.5 (15) μg/mL
same,Minimum Inhibitory Concentration of Meropenem,[3]; [6],32 (64) μg/mL
same,Minimum Inhibitory Concentration of Meropenem,A. baumannii (Ab) AR# 52; [5],1.5 (15) μg/mL
same,Minimum Inhibitory Concentration of Meropenem,A. baumannii (Ab) AR# 70; [8],2 (7) μg/mL
same,Minimum Inhibitory Concentration of Meropenem,[4]; [6],64 (64) μg/mL
same,Minimum Inhibitory Concentration of Meropenem,E. coli AR# 48; [6],128 (64) μg/mL
same,Minimum Inhibitory Concentration of Meropenem,A. baumannii (Ab) AR# 36; [7],4 (30) μg/mL
"Nc1ncc(-c2cccc(NC(=O)Nc3cc(Br)cc(Br)c3)c2)[nH]1 [Compound 7, 1-(3-(2-amino-1H-imidazol-5-yl)phenyl)-3-(3,5-dibromophenyl)urea]",Minimum Inhibitory Concentration of Meropenem,A. baumannii (Ab) AR# 83; [5],24 (15) μg/mL
same,Minimum Inhibitory Concentration of Meropenem,A. baumannii (Ab) AR# 35; [7],32 (30) μg/mL
same,Minimum Inhibitory Concentration of Meropenem,[1]; [5],64 (15) μg/mL
same,Minimum Inhibitory Concentration of Meropenem,A. baumannii (Ab) AR# 33; [5],16 (15) μg/mL
same,Minimum Inhibitory Concentration of Meropenem,A. baumannii (Ab) AR# 37; [8],32 (7) μg/mL
same,Minimum Inhibitory Concentration of Meropenem,A. baumannii (Ab) AR# 88; [5],64 (15) μg/mL
same,Minimum Inhibitory Concentration of Meropenem,E. coli AR# 55; [5],64 (15) μg/mL
same,Minimum Inhibitory Concentration of Meropenem,[2]; [8],128 (7) μg/mL
same,Minimum Inhibitory Concentration of Meropenem,A. baumannii (Ab) AR# 63; [9],32 (4) μg/mL
same,Minimum Inhibitory Concentration of Meropenem,A. baumannii (Ab) AR# 56; [5],8 (15) μg/mL
same,Minimum Inhibitory Concentration of Meropenem,A. baumannii (Ab) AR# 45; [5],1 (15) μg/mL
same,Minimum Inhibitory Concentration of Meropenem,[3]; [5],8 (15) μg/mL
same,Minimum Inhibitory Concentration of Meropenem,A. baumannii (Ab) AR# 52; [9],2 (4) μg/mL
same,Minimum Inhibitory Concentration of Meropenem,A. baumannii (Ab) AR# 70; [10],4 (2) μg/mL
same,Minimum Inhibitory Concentration of Meropenem,[4]; [8],64 (7) μg/mL
same,Minimum Inhibitory Concentration of Meropenem,E. coli AR# 48; [5],64 (15) μg/mL
same,Minimum Inhibitory Concentration of Meropenem,A. baumannii (Ab) AR# 36; [8],8 (7) μg/mL
"Cc1nc(N)[nH]c1-c1cccc(NC(=O)Nc2ccc(C(F)(F)F)c(Cl)c2)c1 [Compound 68, 1-(3-(2-amino-4-methyl-1H-imidazol-5-yl)phenyl)-3-(3-chloro-4-(trifluoromethyl)phenyl)urea]",Minimum Inhibitory Concentration of Meropenem,A. baumannii (Ab) AR# 83; [9],64 (4) μg/mL
same,Minimum Inhibitory Concentration of Meropenem,A. baumannii (Ab) AR# 35; [9],64 (4) μg/mL
same,Minimum Inhibitory Concentration of Meropenem,[1]; [8],64 (7) μg/mL
same,Minimum Inhibitory Concentration of Meropenem,A. baumannii (Ab) AR# 33; [9],64 (4) μg/mL
same,Minimum Inhibitory Concentration of Meropenem,A. baumannii (Ab) AR# 37; [9],64 (4) μg/mL
same,Minimum Inhibitory Concentration of Meropenem,A. baumannii (Ab) AR# 88; [9],64 (4) μg/mL
same,Minimum Inhibitory Concentration of Meropenem,E. coli AR# 55; [9],64 (4) μg/mL
same,Minimum Inhibitory Concentration of Meropenem,[2]; [8],128 (7) μg/mL
same,Minimum Inhibitory Concentration of Meropenem,A. baumannii (Ab) AR# 63; [10],128 (2) μg/mL
same,Minimum Inhibitory Concentration of Meropenem,A. baumannii (Ab) AR# 56; [9],4 (4) μg/mL
same,Minimum Inhibitory Concentration of Meropenem,A. baumannii (Ab) AR# 45; [9],3 (4) μg/mL
same,Minimum Inhibitory Concentration of Meropenem,[3]; [9],64 (4) μg/mL
same,Minimum Inhibitory Concentration of Meropenem,A. baumannii (Ab) AR# 52; [9],4 (4) μg/mL
same,Minimum Inhibitory Concentration of Meropenem,A. baumannii (Ab) AR# 70; [9],1 (4) μg/mL
same,Minimum Inhibitory Concentration of Meropenem,[4]; [8],32 (7) μg/mL
same,Minimum Inhibitory Concentration of Meropenem,E. coli AR# 48; [9],128 (4) μg/mL
same,Minimum Inhibitory Concentration of Meropenem,A. baumannii (Ab) AR# 36; [9],48 (4) μg/mL
"Nc1ncc(-c2cccc(NC(=O)Nc3cccc(-c4cnc(N)[nH]4)c3)c2)[nH]1 [Compound 92, 1,3-bis(3-(2-amino-1H-imidazol-5-yl)phenyl)urea]",Minimum Inhibitory Concentration of Meropenem,A. baumannii (Ab) AR# 83; [5],64 (15) μg/mL
same,Minimum Inhibitory Concentration of Meropenem,A. baumannii (Ab) AR# 35; [7],8 (30) μg/mL
same,Minimum Inhibitory Concentration of Meropenem,[1]; [11],256 (60) μg/mL
same,Minimum Inhibitory Concentration of Meropenem,A. baumannii (Ab) AR# 33; [5],12 (15) μg/mL
same,Minimum Inhibitory Concentration of Meropenem,A. baumannii (Ab) AR# 37; [5],32 (15) μg/mL
same,Minimum Inhibitory Concentration of Meropenem,A. baumannii (Ab) AR# 88; [5],64 (15) μg/mL
same,Minimum Inhibitory Concentration of Meropenem,E. coli AR# 55; [5],128 (15) μg/mL
same,Minimum Inhibitory Concentration of Meropenem,[2]; [7],64 (30) μg/mL
same,Minimum Inhibitory Concentration of Meropenem,A. baumannii (Ab) AR# 63; [8],8 (7) μg/mL
same,Minimum Inhibitory Concentration of Meropenem,A. baumannii (Ab) AR# 56; [5],8 (15) μg/mL
same,Minimum Inhibitory Concentration of Meropenem,A. baumannii (Ab) AR# 45; [8],2 (7) μg/mL
same,Minimum Inhibitory Concentration of Meropenem,[3]; [11],64 (60) μg/mL
same,Minimum Inhibitory Concentration of Meropenem,A. baumannii (Ab) AR# 52; [10],2 (2) μg/mL
same,Minimum Inhibitory Concentration of Meropenem,A. baumannii (Ab) AR# 70; [10],4 (2) μg/mL
same,Minimum Inhibitory Concentration of Meropenem,[4]; [11],64 (60) μg/mL
same,Minimum Inhibitory Concentration of Meropenem,E. coli AR# 48; [8],256 (7) μg/mL
same,Minimum Inhibitory Concentration of Meropenem,A. baumannii (Ab) AR# 36; [5],4 (15) μg/mL
